# Test results taken from patent publication US10544113B2 (priority 2016, dated 2020).
# Where two headings read alike, the source gives them in different places.
# Biological target: mu-opioid receptor (MOR) (Homo sapiens (Human), UniProt P35372)
# Assay: cell-based
# Settings: combined with a MOR antagonist; for AUC: AUC of [Ca2+]i fluorescence
# Method: In an exemplary in vitro screening method for identifying antagonist-to-agonist allosteric modifiers of a MOR, cells that express a MOR are treated with a test compound and a MOR antagonist in a cellular calcium fluorescent assay and fluorescence intensity is then measured to determine whether the MOR is activated. A test compound is identified as an antagonist-to-agonist allosteric modifier of the MOR if the MOR is activated.
# EC50 herein refers to the concentration of a compound that induces a response halfway between the baseline and the maximum after a specified exposure time. AUC refers to the area under the response curve, an indication of the compound's capability of activating a MOR when combined with a MOR antagonist.
# Human embryonic kidney 293 (HEK-293) cells constitutively expressing MOR (HEK-MOR) and DOR (HEK-DOR) (kindly provided by Dr. Ping-Yee Law, University of Minnesota, USA) were cultured in high-glucose Dulbecco's modified Eagle's medium (DMEM, GIBCO) supplemented with 400 μg/mL G418 (Sigma), 2 mM L-glutamine and P/S/F (100 units/mL penicillin, 100 μg/mL streptomycin, 10% fetal bovine serum). Chinese hamster ovary (CHO)-K1 cells, stably expressing hMOR and Gα15 (CHO-K1/MOR/Gα15), were cultured in F12 medium (GIBCO) supplemented with 10 μg/mL Hygromycin B (Invivogen), 20 μg/mL Zeocin (Invivogen) P/S/F (100 units/mL penicillin, 100 μg/mL streptomycin, 10% fetal bovine serum). The cultures were incubated at 37° C. in a humidified 5% CO2 incubator.
# One day before the assay, CORNING® black with clear flat bottom 96-well assay plates were coated with a 0.1 mg/mL Poly-L-Lysine solution. CHO-K1/MOR/Gα15 cells were suspended in the F12 medium and plated at a density of ˜8×10^4 cells/well in 200 μL medium. Cells were incubated in a humidified atmosphere of 10% CO2 at 37° C. overnight so as to reach an 80-90% confluent cell monolayer before assay. At the day of assay, 150 μL medium/well was removed from plate. To each well, 50 μL FLIPR® calcium assay reagent dissolved in 1× assay buffer (HBSS: KCl 5 mM, KH2PO4 0.3 mM, NaCl 138 mM, NaHCO3 4 mM, Na2HPO4 0.3 mM, d-glucose 5.6 mM, with additional 20 mM HEPES and 13 mM CaCl2, pH 7.4), with 2.5 mM probenecid was added and the plate was incubated at 37° C. for 1 h. Compounds and other reagents were dissolved in the assay buffer. Using a FlexStationIII (Molecular Devices Corp.), the [Ca^2+]i fluorescence increases after robotic injections of compounds or other reagents were monitored every 1.52 s interval with excitation wavelength at 485 nm and with emission wavelength at 525 nm. The [Ca^2+]i fluorescence was measured up to 90 s after agonist injection.
# A CHO-K1 cell line, expressing a MOR and Gα15 (GenScript), was used to set up a sensitive high-throughput screen (HTS) system. In a FLIPR® calcium assay using CHO-K1/MOR/Gα15 cells, activation of MOR elicits an intracellular calcium release leading to an increase in the relative fluorescence units (FRU). […] The HTS was performed in the absence or presence of an opioid antagonist, naloxone (25 nM), to identify antagonist to agonist allosteric modifiers (AAM).
# A CHO-K1 cell line, expressing a MOR and Gα15 (GenScript), was used to set up a sensitive assay system for detecting μ-opioid receptor activation. […] The assay was performed in the presence of an opioid antagonist, i.e., naloxone (25 nM), naltrexone (20 nM), samidorphan (10 nM), naloxonazine dihydrochloride (20 nM), β-funaltrexamine hydrochloride (20 nM), cyprodime hydrochloride (500 nM), or nalmefene (20 nM), in combination with compound 58, an antagonist to agonist allosteric modifier (AAM), to identify activation of the μ-opioid receptor.
# Chain of mu-opioid receptor (MOR) (P35372 whole entry): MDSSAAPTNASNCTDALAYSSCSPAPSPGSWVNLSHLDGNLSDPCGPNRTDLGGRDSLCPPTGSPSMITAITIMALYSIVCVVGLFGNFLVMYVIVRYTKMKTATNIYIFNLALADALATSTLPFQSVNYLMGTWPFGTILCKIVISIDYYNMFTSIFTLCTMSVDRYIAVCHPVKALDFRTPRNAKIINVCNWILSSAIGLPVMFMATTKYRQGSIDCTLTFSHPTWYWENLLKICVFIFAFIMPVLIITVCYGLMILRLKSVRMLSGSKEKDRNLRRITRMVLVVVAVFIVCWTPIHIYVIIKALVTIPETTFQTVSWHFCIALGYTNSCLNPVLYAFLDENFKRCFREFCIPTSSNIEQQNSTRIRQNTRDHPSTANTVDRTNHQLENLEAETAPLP
Compound,AUC (CHO-K1/MOR/Gα15 cells),"EC50 (EC50, CHO-K1/MOR/Gα15 cells) [µM]",FLIPR Ca^2+ AUC,EC50 (read-out: FLIPR Ca^2+ EC50) [µM],"EC50 (CHO-K1/MOR/Gα15 cells, read-out: EC50) [µM]"
Cc1cc(C(=O)NS(=O)(=O)c2ccc(Cl)cc2F)ccc1N1C(=O)CSC1c1ccc(F)cc1 (centres unmarked),more than 5000,< 10,15287,0.1,–
CONC(=O)c1ccc(N2C(=O)CSC2c2ccc(F)cc2)c(C)c1 (centres unmarked),–,–,14236,4.2,–
"4-[2-(4-Fluorophenyl)-4-oxo-1,3-thiazolidin-3-yl]-N-methoxy-3-methylbenzamide [Example 154]",more than 5000,–,15447,3.7,< 10
"COc1ccc(N2C(=O)CSC2c2ccc(F)cc2)c(OC)c1 (centres unmarked) [Example 8, 3-(2,4-Dimethoxyphenyl)-2-(4-fluorophenyl)thiazolidin-4-one]",–,< 10,–,–,–
"COc1cc(F)c(F)cc1N1C(=O)CSC1c1ccc(F)cc1 (centres unmarked) [Example 10, 3-(4,5-Difluoro-2-methoxyphenyl)-2-(4-fluorophenyl)thiazolidin-4-one]",–,< 10,6152,2,–
"COc1c(F)cc(F)cc1N1C(=O)CSC1c1ccc(F)cc1 (centres unmarked) [Example 11, 3-(3,5-Difluoro-2-methoxyphenyl)-2-(4-fluorophenyl)thiazolidin-4-one]",–,< 10,–,–,–
"COc1cc(C(=O)O)ccc1N1C(=O)CSC1c1ccc(F)cc1 (centres unmarked) [Example 12, 4-[2-(4-Fluoro-phenyl)-4-oxo-thiazolidin-3-yl]-3-methoxy-benzoic acid]",–,–,12252,10.6,–
CCOc1ccc(N2C(=O)CSC2c2ccc(F)cc2)cc1Cl (centres unmarked) [Example 20],–,< 10,–,–,–
N#Cc1ccc(N2C(=O)CSC2c2ccc(F)cc2)cc1 (centres unmarked) [Example 37],–,< 10,–,–,–
N#Cc1cc(F)c(N2C(=O)CSC2c2ccc(F)cc2)c(F)c1 (centres unmarked) [Example 43],more than 5000,–,12926,11.2,–
O=C(O)c1ccc(N2C(=O)CSC2c2ccc(F)cc2)c(Cl)c1 (centres unmarked) [Example 44],–,< 10,–,–,–
Cc1cc(C#N)ccc1N1C(=O)CSC1c1ccc(F)cc1 (centres unmarked) [Example 46],–,< 10,–,–,–
COc1ccc(N2C(=O)CSC2c2ccc(F)cc2)c(C)c1 (centres unmarked) [Example 47],–,< 10,–,–,–
COc1cc(C)c(N2C(=O)CSC2c2ccc(F)cc2)cc1OC (centres unmarked) [Example 52],–,–,7780,3.6,–
Cc1cc(N(C)C)ccc1N1C(=O)CSC1c1ccc(F)cc1 (centres unmarked) [Example 53],–,–,6407,0.5,–
Cc1ccc(C(=O)O)cc1N1C(=O)CSC1c1ccc(F)cc1 (centres unmarked) [Example 54],–,–,8906,3.3,–
COC(=O)c1ccc(N2C(=O)CSC2c2ccc(F)cc2)c(C)c1 (centres unmarked) [Example 59],–,–,11534,2.6,–
Cc1cc(C(=O)O)ccc1N1C(=O)CSC1c1cccc(F)c1 (centres unmarked) [Example 60],–,–,20700,1.1,–
Cc1cc(C(=O)O)ccc1N1C(=O)CSC1c1ccc(F)c(F)c1 (centres unmarked) [Example 62],more than 5000,< 10,21586,1.6,–
Cc1cc(C(=O)O)ccc1N1C(=O)CSC1c1cc(F)cc(F)c1 (centres unmarked) [Example 64],more than 5000,< 10,9368,6,–

Compound,AUC (CHO-K1/MOR/Gα15 cells),"EC50 (EC50, CHO-K1/MOR/Gα15 cells) [µM]",FLIPR Ca^2+ AUC,EC50 (read-out: FLIPR Ca^2+ EC50) [µM],"EC50 (CHO-K1/MOR/Gα15 cells, read-out: EC50) [µM]"
Cc1cc(C2SCC(=O)N2c2ccc(C(=O)O)cc2C)ccc1F (centres unmarked) [Example 68],more than 5000,< 10,7951,6.4,–
Cc1cc(C(=O)O)ccc1N1C(=O)CSC1c1cccc(C(F)(F)F)c1 (centres unmarked) [Example 74],–,< 10,–,–,–
COc1ccc(C2SCC(=O)N2c2ccc(C(=O)O)cc2C)cc1 (centres unmarked) [Example 78],more than 5000,< 10,9368,6,–
Cc1cc(C(=O)O)ccc1N1C(=O)CSC1c1ccc(Cl)cc1 (centres unmarked) [Example 84],more than 5000,< 10,5509,7.2,–
CC(=O)c1ccc(C)c(N2C(=O)CSC2c2ccc(F)cc2)c1 (centres unmarked) [Example 90],–,< 10,–,–,–
Cc1ccc(C(F)(F)F)cc1N1C(=O)CSC1c1ccc(F)cc1 (centres unmarked) [Example 92],–,< 10,–,–,–
COC(=O)COc1ccc(N2C(=O)CSC2c2ccc(F)cc2)c(C)c1 (centres unmarked) [Example 93],more than 5000,< 10,11009,6.4,–
COC(=O)Cc1ccc(N2C(=O)CSC2c2ccc(F)cc2)c(C)c1 (centres unmarked) [Example 96],more than 5000,< 10,9657,10,–
Cc1cc(CC(=O)O)ccc1N1C(=O)CSC1c1ccc(F)cc1 (centres unmarked) [Example 101],–,< 10,–,–,–
Cc1ccc(N2C(=O)CSC2c2ccc(F)cc2)c(C)c1 (centres unmarked) [Example 102],–,< 10,–,–,–
Cc1c(F)cccc1N1C(=O)CSC1c1ccc(F)cc1 (centres unmarked) [Example 109],–,–,9614,2.6,–
Cc1cc(F)ccc1N1C(=O)CSC1c1ccc(F)cc1 (centres unmarked) [Example 110],–,–,6308,3.8,–
Cc1ccc(F)cc1N1C(=O)CSC1c1ccc(F)cc1 (centres unmarked) [Example 112],–,< 10,–,–,–
Cc1ccc(F)cc1N1C(=O)CSC1c1cccc(F)c1 (centres unmarked) [Example 113],–,< 10,–,–,–
CCc1ccc(C2SCC(=O)N2c2cc(F)ccc2C)cc1 (centres unmarked) [Example 117],more than 5000,–,7880,13.5,–
Cc1ccc(F)cc1N1C(=O)CSC1c1cc(F)cc(F)c1 (centres unmarked) [Example 122],more than 5000,–,7010,3.6,–
Cc1ccc(F)cc1N1C(=O)CSC1c1ccc(Cl)c(F)c1 (centres unmarked) [Example 123],–,–,4228,0.5,–
Cc1ccc(Cl)cc1N1C(=O)CSC1c1ccc(F)cc1 (centres unmarked) [Example 147],more than 5000,< 10,11516,3.2,–
Cc1ccc(Br)cc1N1C(=O)CSC1c1ccc(F)cc1 (centres unmarked) [Example 149],–,< 10,4427,4.4,–
